From ChEMBL document CHEMBL1201862, “PubChem BioAssay data set” (2004)
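Dose response: 5 concentrations. Exposure: 48 h. Format: 96-well plates. Endpoint: linear interpolation; highest concentration if not reached. GI50 is the concentration that inhibits growth by half.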 Active and inactive are the calls of the source. No stated cut-off is given here; in the data, active = GI50 up to about 1.1 µM and inactive = higher.

Assays:
Assay in all cases: NCI-60 cell line screen, 48 h
SF-295 = tested on: SF-295
KM-20L2 = tested on: KM-20L2
M14 = tested on: M14
KM12 = tested on: KM12
U-251 = tested on: U-251
HL-60 = tested on: HL-60
UO-31 = tested on: UO-31
NCI-H460 = tested on: NCI-H460
NCI-H522 = tested on: NCI-H522
EKVX = tested on: EKVX
COLO 205 = tested on: COLO 205
HOP-62 = tested on: HOP-62
ACHN = tested on: ACHN
SNB-75 = tested on: SNB-75
RXF 631 = tested on: RXF 631
SF-268 = tested on: SF-268
SK-MEL-2 = tested on: SK-MEL-2
OVCAR-3 = tested on: OVCAR-3
NCI-H226 = tested on: NCI-H226
SK-OV-3 = tested on: SK-OV-3
SNB-78 = tested on: SNB-78
XF498 = tested on: XF498
LOX IMVI = tested on: LOX IMVI
OVCAR-8 = tested on: OVCAR-8
UACC-62 = tested on: UACC-62
K562 = tested on: K562
MOLT-4 = tested on: MOLT-4
SK-MEL-28 = tested on: SK-MEL-28
HCT-116 = tested on: HCT-116
HCC 2998 = tested on: HCC 2998
CCRF-CEM = tested on: CCRF-CEM
SF-539 = tested on: SF-539
RXF 393 = tested on: RXF 393
UACC-257 = tested on: UACC-257
DMS-273 = tested on: DMS-273
IGROV-1 = tested on: IGROV-1
LXFL 529 = tested on: LXFL 529
A498 = tested on: A498
SK-MEL-5 = tested on: SK-MEL-5
786-0 = tested on: 786-0
TK-10 = tested on: TK-10
A549 = tested on: A549
Malme-3M = tested on: Malme-3M
DLD-1 = tested on: DLD-1
HOP-92 = tested on: HOP-92
OVCAR-5 = tested on: OVCAR-5
NCI-H23 = tested on: NCI-H23
RPMI-8226 = tested on: RPMI-8226
HT-29 = tested on: HT-29
SW-620 = tested on: SW-620
SR = tested on: SR
HOP-18 = tested on: HOP-18
HCT-15 = tested on: HCT-15
M19-MEL = tested on: M19-MEL
DMS-114 = tested on: DMS-114
OVCAR-4 = tested on: OVCAR-4
SN12C = tested on: SN12C
SNB-19 = tested on: SNB-19
CAKI-1 = tested on: CAKI-1

Measured: GI50

COC(=O)NN=C1C(C)(C)C(=O)C1(C)C
inactive: SF-295 > 100 µM | KM-20L2 > 100 µM | M14 > 100 µM | KM12 > 100 µM | U-251 > 100 µM | HL-60 > 100 µM | UO-31 > 100 µM | NCI-H460 > 100 µM | NCI-H522 > 100 µM | EKVX > 100 µM | COLO 205 > 100 µM | HOP-62 > 100 µM | ACHN > 100 µM | SNB-75 > 100 µM | RXF 631 > 100 µM | SF-268 > 100 µM | SK-MEL-2 > 100 µM | OVCAR-3 > 100 µM | NCI-H226 > 100 µM | SK-OV-3 > 100 µM | SNB-78 > 100 µM | XF498 > 100 µM | LOX IMVI > 100 µM | OVCAR-8 > 100 µM | UACC-62 > 100 µM | K562 > 100 µM | MOLT-4 > 100 µM | SK-MEL-28 > 100 µM | HCT-116 > 100 µM | HCC 2998 > 100 µM | CCRF-CEM > 100 µM | SF-539 > 100 µM | RXF 393 > 100 µM | UACC-257 > 100 µM | DMS-273 > 100 µM | IGROV-1 > 100 µM | LXFL 529 > 100 µM | A498 > 100 µM | SK-MEL-5 > 100 µM | 786-0 > 100 µM | TK-10 > 100 µM | A549 > 100 µM | Malme-3M > 100 µM | DLD-1 > 100 µM | HOP-92 > 100 µM | OVCAR-5 > 100 µM | NCI-H23 > 100 µM | RPMI-8226 > 100 µM | HT-29 > 100 µM | SW-620 > 100 µM

O=c1cc[nH]c2c1ccc1ncccc12
inactive: KM-20L2 > 100 µM | M14 > 100 µM | KM12 > 100 µM | SR > 100 µM | U-251 > 100 µM | HL-60 > 100 µM | UO-31 > 100 µM | HOP-18 > 100 µM | NCI-H460 > 100 µM | NCI-H522 > 100 µM | EKVX > 100 µM | COLO 205 > 100 µM | HOP-62 > 100 µM | ACHN > 100 µM | SNB-75 > 100 µM | RXF 631 > 100 µM | SF-268 > 100 µM | SK-MEL-2 > 100 µM | M19-MEL > 100 µM | OVCAR-3 > 100 µM | NCI-H226 > 100 µM | DMS-114 > 100 µM | SK-OV-3 > 100 µM | SNB-78 > 100 µM | LOX IMVI > 100 µM | OVCAR-8 > 100 µM | UACC-62 > 100 µM | K562 > 100 µM | MOLT-4 > 100 µM | SK-MEL-28 > 100 µM | HCT-116 > 100 µM | HCC 2998 > 100 µM | OVCAR-4 > 100 µM | CCRF-CEM > 100 µM | SF-539 > 100 µM | RXF 393 > 100 µM | UACC-257 > 100 µM | DMS-273 > 100 µM | SN12C > 100 µM | IGROV-1 > 100 µM | LXFL 529 > 100 µM | A498 > 100 µM | SK-MEL-5 > 100 µM | 786-0 > 100 µM | TK-10 > 100 µM | A549 > 100 µM | Malme-3M > 100 µM | DLD-1 > 100 µM | OVCAR-5 > 100 µM | NCI-H23 > 100 µM | SNB-19 > 100 µM | HT-29 > 100 µM | SW-620 > 100 µM
> 100 µM: HCT-15

[O-]c1c2c(nn1-c1ccc(Cl)cc1)c1ccccc1c[n+]2Cc1ccccc1
inactive: SF-295 78.9 µM | KM-20L2 > 100 µM | M14 > 100 µM | KM12 > 100 µM | SR > 100 µM | U-251 > 100 µM | HL-60 > 100 µM | CAKI-1 > 100 µM | UO-31 > 100 µM | HOP-18 > 100 µM | NCI-H460 > 100 µM | NCI-H522 58.9 µM | EKVX > 100 µM | COLO 205 > 100 µM | HOP-62 > 100 µM | ACHN 80.5 µM | SNB-75 32.2 µM | SF-268 95.3 µM | SK-MEL-2 > 100 µM | M19-MEL > 10 µM | OVCAR-3 > 100 µM | NCI-H226 > 100 µM | DMS-114 > 100 µM | SK-OV-3 40.2 µM | SNB-78 > 100 µM | XF498 35 µM | LOX IMVI > 100 µM | OVCAR-8 65.9 µM | UACC-62 44.6 µM | K562 > 100 µM | MOLT-4 > 100 µM | SK-MEL-28 > 100 µM | HCT-116 > 100 µM | HCC 2998 > 100 µM | OVCAR-4 46.2 µM | CCRF-CEM > 100 µM | SF-539 80.4 µM | RXF 393 27 µM | UACC-257 > 100 µM | DMS-273 > 100 µM | SN12C > 100 µM | IGROV-1 62.4 µM | LXFL 529 > 100 µM | SK-MEL-5 58.7 µM | 786-0 33.3 µM | TK-10 > 100 µM | A549 63.4 µM | Malme-3M 45.4 µM | DLD-1 81.5 µM | OVCAR-5 > 100 µM | NCI-H23 > 100 µM | RPMI-8226 > 100 µM | SNB-19 > 100 µM | HT-29 > 100 µM | SW-620 > 100 µM

S=C(N/N=C/c1ccccc1)NC12CC3CC(CC(C3)C1)C2
47.8 µM: HCT-15
inactive: SF-295 41 µM | KM-20L2 7.08 µM | M14 46.6 µM | KM12 36.2 µM | SR 18.2 µM | U-251 53.8 µM | HL-60 31.2 µM | CAKI-1 49.3 µM | UO-31 > 100 µM | NCI-H460 39.5 µM | NCI-H522 29.5 µM | EKVX 71.4 µM | COLO 205 27 µM | HOP-62 > 100 µM | ACHN 51.8 µM | RXF 631 44.5 µM | SF-268 31.9 µM | SK-MEL-2 40 µM | OVCAR-3 27.2 µM | NCI-H226 97.7 µM | SK-OV-3 > 100 µM | XF498 35.8 µM | LOX IMVI 22.8 µM | OVCAR-8 60 µM | UACC-62 27.5 µM | K562 9.27 µM | MOLT-4 12.3 µM | SK-MEL-28 59.3 µM | HCT-116 29.5 µM | OVCAR-4 42.2 µM | CCRF-CEM 19.6 µM | SF-539 12.4 µM | RXF 393 23.7 µM | UACC-257 26.1 µM | DMS-273 22.6 µM | SN12C 17.7 µM | IGROV-1 > 100 µM | LXFL 529 64.7 µM | A498 63.4 µM | SK-MEL-5 27.2 µM | 786-0 56.1 µM | TK-10 > 100 µM | A549 27.8 µM | HOP-92 6.18 µM | OVCAR-5 63.7 µM | NCI-H23 55.8 µM | RPMI-8226 22 µM | SNB-19 > 100 µM | HT-29 5.31 µM | SW-620 30.5 µM

CCOC(=O)/C(=C\c1cccs1)P(=O)(OCC)OCC
inactive: SF-295 29.4 µM | KM-20L2 21.9 µM | M14 16.1 µM | KM12 17.1 µM | SR 19.1 µM | U-251 20.2 µM | HL-60 13.9 µM | CAKI-1 18.2 µM | UO-31 19.7 µM | HOP-18 31.3 µM | NCI-H460 20.1 µM | NCI-H522 14.2 µM | EKVX 23.8 µM | COLO 205 16 µM | HOP-62 48.2 µM | ACHN 17.6 µM | SNB-75 35.6 µM | RXF 631 55.8 µM | SF-268 24.1 µM | SK-MEL-2 16.4 µM | M19-MEL 21.5 µM | OVCAR-3 19.8 µM | NCI-H226 18.7 µM | DMS-114 21.5 µM | SK-OV-3 38.9 µM | SNB-78 49.3 µM | LOX IMVI 15.7 µM | OVCAR-8 25.4 µM | UACC-62 16.4 µM | K562 29.9 µM | MOLT-4 25.8 µM | SK-MEL-28 17.2 µM | HCT-116 19.2 µM | HCC 2998 18.4 µM | OVCAR-4 19 µM | CCRF-CEM 29.9 µM | SF-539 20.8 µM | RXF 393 15.1 µM | UACC-257 23.2 µM | DMS-273 34.6 µM | SN12C 19.7 µM | LXFL 529 18.6 µM | SK-MEL-5 17 µM | 786-0 21.9 µM | TK-10 36.6 µM | A549 21 µM | Malme-3M 22.7 µM | DLD-1 21.2 µM | HOP-92 27.6 µM | OVCAR-5 21.9 µM | NCI-H23 18.9 µM | RPMI-8226 20.4 µM | SNB-19 53.2 µM | HT-29 20.6 µM | SW-620 20 µM
17.5 µM: HCT-15
